From the Kinase Knowledgebase extract (Sharma et al. 2016)

Assays:
CDK2 (human) = CDK2 (human) (UniProt P24941); assay: Cell-Based Assay; details: a2780
CDK2 = CDK2 (UniProt P24941); assay: Enzyme Assay

SMILES: NC(=O)c1nn(-c2ccc(-c3ncc[nH]3)cc2)c2c1CCc1[nH]ncc1-2
- IC50 (CDK2 (human)): > 20 µM

SMILES: NC(=O)c1nn(-c2ccc(C(F)(F)F)cc2)c2c1CCc1[nH]ncc1-2
- IC50 (CDK2 (human)): > 20 µM

SMILES: N#Cc1ccc(-n2nc(C(N)=O)c3c2-c2cn[nH]c2CC3)cc1
- IC50 (CDK2 (human)): > 20 µM

SMILES: CCCCNS(=O)(=O)c1ccc(-n2nc(C(=O)NC)c3c2-c2cn[nH]c2CC3)cc1
- IC50 (CDK2 (human)): 10.2 µM

SMILES: NC(=O)c1nn(Cc2ccccc2)c2c1ccc1[nH]ncc12
- IC50 (CDK2 (human)): 2.98 µM

SMILES: CC(=O)c1nn(-c2ccc(C)cc2)c2c1CCc1[nH]ncc1-2
- IC50 (CDK2 (human)): > 20 µM

SMILES: NC(=O)c1nn(-c2ccc(-c3ncc[nH]3)cc2)c2c1ccc1[nH]ncc12
- IC50 (CDK2 (human)): > 20 µM

SMILES: CNS(=O)(=O)c1ccc(-n2nc(C(N)=O)c3c2-c2cn[nH]c2CC3)cc1
- IC50 (CDK2 (human)): > 20 µM

SMILES: CNS(=O)(=O)c1ccc(-n2nc(C(N)=O)c3ccc4[nH]ncc4c32)cc1
- IC50 (CDK2 (human)): > 20 µM

SMILES: CS(=O)(=O)c1ccc(-n2nc(C(N)=O)c3c2-c2cn[nH]c2CC3)cc1
- IC50 (CDK2 (human)): > 20 µM

SMILES: NC(=O)c1nn(-c2ccc(Cl)cc2)c2c1CCc1[nH]ncc1-2
- IC50 (CDK2 (human)): > 20 µM

SMILES: CC(=O)c1nn(-c2ccc(C)cc2)c2c1C(C)(C)Cc1[nH]ncc1-2
- IC50 (CDK2 (human)): 1.65 µM
- IC50 (CDK2): 0.087 µM

SMILES: C=CCONC(=O)c1nn(-c2ccc(S(=O)(=O)NCCC)cc2)c2c1ccc1[nH]ncc12
- IC50 (CDK2 (human)): 8.7 µM
- IC50 (CDK2): 0.2 µM

SMILES: NC(=O)c1nn(-c2ccc(OC(F)(F)F)cc2)c2c1CCc1[nH]ncc1-2
- IC50 (CDK2 (human)): > 20 µM

SMILES: COc1ccc(-n2nc(C(=O)O)c3ccc4[nH]ncc4c32)cc1
- IC50 (CDK2 (human)): > 20 µM

SMILES: CCCCNS(=O)(=O)c1ccc(-n2nc(C(=O)NC)c3ccc4[nH]ncc4c32)cc1
- IC50 (CDK2 (human)): 2.9 µM

SMILES: CN1CCN(S(=O)(=O)c2ccc(-n3nc(C(N)=O)c4ccc5[nH]ncc5c43)cc2)CC1
- IC50 (CDK2 (human)): > 20 µM
